Experimental data as given in PubChem BioAssay AID248 (DTP/NCI, 2004).
Values joined by “and” are separate entries in the source; they are usually repeats but may differ in a detail not shown here. Identical values can stand only once. Inconclusive results and toxic doses are left out. Cut-off read from the data, not from the text of the source: active = T/C of 150% or more; inactive = T/C below 125%.

Test system: L1210 leukemia ip in BDF1 mice, survival T/C
Test: NCI In Vivo Anticancer Drug Screen. Data for tumor model L1210 Leukemia (intraperitoneal) in B6D2F1 (BDF1) mice
Details: endpoint: mean survival time, higher = longer survival
Procedure, shortened: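 Mice bearing the transplanted tumor received compound or vehicle. Survival of the treated group was divided by that of the vehicle-treated control group to give the ratio.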

[1] = dose: 100.0 mg/kg/injection, schedule: Q01DX009 (ip), vehicle: Klucel (hydroxypropylcellulose) (HPC)
[2] = dose: 100.0 mg/kg/injection, schedule: Q04DX003 (ip), vehicle: Klucel (hydroxypropylcellulose) (HPC)
[3] = dose: 200.0 mg/kg/injection, schedule: Q01DX009 (ip), vehicle: Klucel (hydroxypropylcellulose) (HPC)
[4] = dose: 200.0 mg/kg/injection, schedule: Q04DX003 (ip), vehicle: Klucel (hydroxypropylcellulose) (HPC)
[5] = dose: 400.0 mg/kg/injection, schedule: Q04DX003 (ip), vehicle: Klucel (hydroxypropylcellulose) (HPC)
[6] = dose: 400.0 mg/kg/injection, schedule: Q01DX001 (ip), vehicle: saline
[7] = dose: 400.0 mg/kg/injection, schedule: Q01DX009 (ip), vehicle: Klucel (hydroxypropylcellulose) (HPC)
[8] = dose: 100.0 mg/kg/injection, schedule: Q01DX009 (ip), vehicle: saline with Tween-80
[9] = dose: 100.0 mg/kg/injection, schedule: Q04DX003 (ip), vehicle: saline with Tween-80
[10] = dose: 200.0 mg/kg/injection, schedule: Q01DX009 (ip), vehicle: saline with Tween-80
[11] = dose: 200.0 mg/kg/injection, schedule: Q04DX003 (ip), vehicle: saline with Tween-80
[12] = dose: 400.0 mg/kg/injection, schedule: Q01DX009 (ip), vehicle: saline with Tween-80
[13] = dose: 400.0 mg/kg/injection, schedule: Q04DX003 (ip), vehicle: saline with Tween-80
[14] = dose: 100.0 mg/kg/injection, schedule: Q01DX001 (ip), vehicle: carboxymethylcellulose (CMC)
[15] = dose: 200.0 mg/kg/injection, schedule: Q01DX001 (ip), vehicle: carboxymethylcellulose (CMC)
[16] = dose: 100.0 mg/kg/injection, schedule: Q01DX001 (ip), vehicle: saline
[17] = dose: 200.0 mg/kg/injection, schedule: Q01DX001 (ip), vehicle: saline
[18] = dose: 100.0 mg/kg/injection, schedule: Q04DX002 (ip), vehicle: Klucel (hydroxypropylcellulose) (HPC)
[19] = dose: 200.0 mg/kg/injection, schedule: Q04DX002 (ip), vehicle: Klucel (hydroxypropylcellulose) (HPC)
[20] = dose: 400.0 mg/kg/injection, schedule: Q04DX002 (ip), vehicle: Klucel (hydroxypropylcellulose) (HPC)

Measured: T/C

CCOP(=O)(/C(=C\c1ccccc1)C(=O)c1ccccc1)c1ccccc1 (stereo unspecified)
inactive: [1] 96 % of control | [2] 95 % of control | [3] 95 % of control | [4] 98 % of control | dose: 300.0 mg/kg/injection, schedule: Q01DX009 (ip), vehicle: Klucel (hydroxypropylcellulose) (HPC) 90 % of control | [5] 98 % of control

N#CCCC(C#N)(C#N)CCC#N
inactive: dose: 175.0 mg/kg/injection, schedule: Q01DX001 (ip), vehicle: saline 97 % of control | dose: 265.0 mg/kg/injection, schedule: Q01DX001 (ip), vehicle: saline 100 % of control | [6] 96 % of control | dose: 600.0 mg/kg/injection, schedule: Q01DX001 (ip), vehicle: saline 91 % of control

C1=C(c2ccccc2)CCCC1
inactive: [1] 92 % of control | [2] 106 % of control | [3] 95 % of control | [4] 100 % of control | [7] 109 % of control | [5] 92 % of control

Cc1ccc(/C=C/C(=O)c2ccc(Cl)cc2)cc1
inactive: [8] 108 % of control | [9] 93 % of control | [10] 94 % of control | [11] 101 % of control | [12] 97 % of control | [13] 91 % of control

CC(=O)Oc1cccc(OC(C)=O)c1OC(C)=O
inactive: [1] 103 % of control | [2] 107 % of control | [3] 100 % of control | [4] 97 % of control | [7] 97 % of control | [5] 100 % of control

CCCCCCCCCCCCCCCC(=O)N(CCC)CCC
inactive: [14] 98 % of control | dose: 100.0 mg/kg/injection, schedule: Q01DX009 (ip), vehicle: carboxymethylcellulose (CMC) 105 % of control and 90 % of control | dose: 100.0 mg/kg/injection, schedule: Q04DX002 (ip), vehicle: carboxymethylcellulose (CMC) 102 % of control | dose: 100.0 mg/kg/injection, schedule: Q04DX003 (ip), vehicle: carboxymethylcellulose (CMC) 102 % of control | [15] 99 % of control | dose: 200.0 mg/kg/injection, schedule: Q01DX009 (ip), vehicle: carboxymethylcellulose (CMC) 100 % of control and 101 % of control | dose: 200.0 mg/kg/injection, schedule: Q04DX002 (ip), vehicle: carboxymethylcellulose (CMC) 94 % of control | dose: 200.0 mg/kg/injection, schedule: Q04DX003 (ip), vehicle: carboxymethylcellulose (CMC) 104 % of control | dose: 400.0 mg/kg/injection, schedule: Q01DX001 (ip), vehicle: carboxymethylcellulose (CMC) 99 % of control | dose: 400.0 mg/kg/injection, schedule: Q04DX002 (ip), vehicle: carboxymethylcellulose (CMC) 96 % of control | dose: 400.0 mg/kg/injection, schedule: Q04DX003 (ip), vehicle: carboxymethylcellulose (CMC) 104 % of control

O=CC(O)C(O)C(Cl)C(O)CCl (stereo unspecified)
inactive: dose: 100.0 mg/kg/injection, schedule: Q04DX002 (ip), vehicle: saline with Tween-80 90 % of control | dose: 200.0 mg/kg/injection, schedule: Q04DX002 (ip), vehicle: saline with Tween-80 97 % of control | dose: 400.0 mg/kg/injection, schedule: Q04DX002 (ip), vehicle: saline with Tween-80 93 % of control

CC1C(c2ccccc2)CC(c2ccccc2)OS1(=O)=O (stereo unspecified)
inactive: dose: 100.0 mg/kg/injection, schedule: Q01DX001 (ip), vehicle: Klucel (hydroxypropylcellulose) (HPC) 95 % of control | [2] 103 % of control | dose: 200.0 mg/kg/injection, schedule: Q01DX001 (ip), vehicle: Klucel (hydroxypropylcellulose) (HPC) 97 % of control | [4] 94 % of control | dose: 400.0 mg/kg/injection, schedule: Q01DX001 (ip), vehicle: Klucel (hydroxypropylcellulose) (HPC) 93 % of control | [5] 97 % of control

C(=N\N=C\c1cccs1)/c1cccs1
inactive: [9] 98 % of control | [11] 98 % of control | [13] 95 % of control

[CH3][Ga]([CH3])[O]c1ccccc1C=O
inactive: dose: 1.5 mg/kg/injection, schedule: Q01DX009 (ip), vehicle: DMSO 97 % of control | dose: 1.5 mg/kg/injection, schedule: Q04DX003 (ip), vehicle: DMSO 107 % of control | dose: 3.0 mg/kg/injection, schedule: Q01DX009 (ip), vehicle: DMSO 97 % of control | dose: 3.0 mg/kg/injection, schedule: Q04DX003 (ip), vehicle: DMSO 94 % of control | dose: 6.0 mg/kg/injection, schedule: Q01DX009 (ip), vehicle: DMSO 108 % of control | dose: 6.0 mg/kg/injection, schedule: Q04DX003 (ip), vehicle: DMSO 102 % of control

CCOC(=O)c1[nH]c2c(c1CC(CC)[N+](=O)[O-])CCCC2 (stereo unspecified)
inactive: [1] 96 % of control | [2] 93 % of control | [3] 98 % of control | [4] 93 % of control | [7] 101 % of control | [5] 95 % of control

CC(=O)C1Cc2ccccc2C1=O (stereo unspecified)
inactive: dose: 50.0 mg/kg/injection, schedule: Q01DX001 (ip), vehicle: saline 100 % of control | [16] 97 % of control | [17] 106 % of control | [6] 108 % of control

CN1NC(=O)CC1c1ccccc1 (stereo unspecified)
inactive: [18] 93 % of control | [19] 97 % of control | [20] 100 % of control

CN(C)CCOC(c1ccccc1)c1ccccc1 (tested in a mixture with another compound)
inactive: [16] 109 % of control | [17] 101 % of control | [6] 95 % of control

CCCCCCCCCCCCCCCC[N+]1(CCCC)CCOCC1
inactive: [2] 86 % of control | [4] 101 % of control

CCCC(OC(C[N+](=O)[O-])C(Cl)(Cl)Cl)c1ccccc1 (stereo unspecified)
inactive: [8] 97 % of control | [9] 98 % of control | [10] 101 % of control | [11] 96 % of control | [12] 107 % of control | [13] 96 % of control

O=C(O)/C=C/Sc1ccccc1
inactive: dose: 25.0 mg/kg/injection, schedule: Q04DX003 (ip), vehicle: Klucel (hydroxypropylcellulose) (HPC) 104 % of control | dose: 50.0 mg/kg/injection, schedule: Q04DX003 (ip), vehicle: Klucel (hydroxypropylcellulose) (HPC) 102 % of control

O=C1CCCCC1O (stereo unspecified)
inactive: dose: 100.0 mg/kg/injection, schedule: Q01DX001 (ip), vehicle: other 116 % of control | dose: 200.0 mg/kg/injection, schedule: Q01DX001 (ip), vehicle: other 103 % of control | dose: 400.0 mg/kg/injection, schedule: Q01DX001 (ip), vehicle: other 95 % of control

O=C(CCCCNC(=O)C1CCCN1Sc1ccc([N+](=O)[O-])cc1[N+](=O)[O-])OCc1ccccc1 (stereo unspecified)
inactive: [18] 90 % of control | [19] 94 % of control | [20] 94 % of control

CC(CC(CCC(=O)O)(c1ccccc1)c1ccccc1)N(C)C (stereo unspecified)
inactive: [14] 105 % of control | [15] 97 % of control
